From the NIST ThermoML archive (doi:10.1007/s10765-018-2361-8)

Details: for mass density / kinematic viscosity: 101.33 kPa; for mass density / kinematic viscosity / vapor or sublimation pressure: Liquid; for mass density: Pycnometric method; for surface tension liquid-gas: Capillary rise; for kinematic viscosity: Capillary tube (Ostwald / Ubbelohde) method; for vapor or sublimation pressure: Closed cell (Static) method

CC(C)O [propan-2-ol]
Details	kinematic viscosity [m2/s]	mass density [kg/m3]	surface tension liquid-gas [mN/m]	vapor or sublimation pressure [kPa]
263.1 K	–	810.9	–	–
283.1 K	–	795.3	–	–
293.2 K	3.12e-06	–	21.4	–
295.3 K	–	784.3	–	–
297.9 K	–	–	–	6.38
303.2 K	2.35e-06	–	–	–
303.3 K	–	–	20.6	–
303.6 K	–	777.5	–	–
303.7 K	–	–	–	8.93
313.2 K	–	–	19.8	–
321.2 K	–	–	–	21.91
323.2 K	1.39e-06	–	–	–
323.3 K	–	–	19	–
323.4 K	–	760.1	–	–
333.2 K	–	–	18.2	–
333.5 K	–	–	–	39.46
343.3 K	9e-07	741	17.4	61.57
352.9 K	–	–	–	92.28
362.5 K	–	–	–	134.96
